Results reported in patent US6864275B1, “Compounds and methods for use thereof in the treatment of cancer” (UAF Technologies and Research, LLC, priority 1997, dated 2005).

How the values were obtained:
B16 murine melanoma [1] = test: MTT cell growth inhibition, B16 melanoma cells; format: cell-based; conditions: 3-6 days incubation
Description: (§1) The following cell culture tests were performed to test the toxicity of benzimidazole derivative compounds of the present invention on colon and melanoma tumor cells. The viability of the cells were tested by looking at MTT (3-[4,5-dimethylthiazol-2-yl]-2,5-diphenyltetrazolium bromide) reduction. MTT assay is a well known measure of cell viability.
(§2) The colon tumor cells (HT29) and the melanoma cells (B16 murine melanoma) were seeded (1000-2000 cells) into each well of a 96-well microtiter plate and allowed to grow. Twenty-four hours later, increasing concentrations of each benzimidazole derivative were added to the plates and the cells were allowed to incubate for 3-6 days in the presence of the drugs. MTT reagent was then added to the wells and allowed to incubate for 4 hours at 37° C., after which the formazan metabolite was solubilized with acidic isopropanol and the absorbance was read. Experimental controls included blank wells to which no cells were added (zero point of formazan absorbance) and control wells to which no drug was added (highest level of formazan absorbance). Each drug concentration was tested in duplicate and the resulting average absorbance was plotted against drug concentration using the EZ-ED50 computer program on a personal computer interfaced to the microtiter plate reader. […] The IC50 value is then derived from this equation by EZ-ED50.

Tubulin = test: Microtubule inhibition assay (tubulin polymerization, absorbance at 350 nm); format: biochemical, bovine; conditions: compound at 2 μM, after 30 minutes
Description: The benzimidazole derivatives of this invention were evaluated for their ability to inhibit formation of microtubules, following the procedure of Luduena, R. F. and M. C. […] Microtubule polymerization was followed by performing the reaction in a cuvette and monitoring UV absorbance at 350 nm, allowing direct visualization of the time course of the polymerization.

colon tumor cells (HT29) = test: MTT cell growth inhibition, HT29 colon tumor cells; format: cell-based; conditions: 3-6 days incubation, read-out: IC50 Human Colon Carcinoma
Description: as §1, §2

B16 murine melanoma [2] = test: In vivo B16 murine melanoma tumor model; parameters: species or system B6D2F1 mice; conditions: qd × 5; for T/C (%): mean survival treated/control; for # of Survivors: survived at least 60 days
Description: B6D2F1 mice received interperitoneally (i.p.) inocula of B16 murine melanoma brei prepared from B16 tumors growing s.c. in mice (Day 0). On Day 1, mice were randomized into groups, with 20 mice in the control group and 10 mice in each treated group (except there were 8 mice in selected groups given compound 3-13. Treatment with drugs or vehicle control was started on Day 1.
The mean survival times of all groups were calculated and results were expressed as mean survival of treated mice/mean survival of control mice (T/C)×100%. A “T/C” value of 150 means that the mice in the treated group lived 50% longer than those of the control group; this is sometimes referred to as the increase in life span, or ILS value.
Mice that survived for at least 60 days were considered to be long-term survivors, or cures, in the B16 model. The universally accepted cut-off for activity in this model, which has been used for years by the NCI, is T/C=125. Conventional use of B16 over the years has set the following levels of activity:
T/C>300, with long-term survivors=excellent, curative activity.

Compound | IC50 (B16 murine melanoma [1]) | Tubulin Polymerization Inhibition, % Inhibition (Tubulin) | IC50 (colon tumor cells (HT29)) | other results
COC(=O)Nc1nc2ccc(C(=O)NCCN3CCOCC3)cc2[nH]1 [2-2] | 80500 nM | 11% | 121000 nM | –
CCC(C)NC(=O)c1ccc2nc(NC(=O)OC)[nH]c2c1 (stereo not drawn) [2-3] | 2900 nM | 26% | 1600 nM | –
COC(=O)Nc1nc2ccc(C(=O)NCC3CCCO3)cc2[nH]1 (stereo not drawn) [2-4] | 47200 nM | 36% | 35700 nM | –
COC(=O)Nc1nc2ccc(C(=O)NCCC(C)C)cc2[nH]1 [2-5] | 5900 nM | 37% | 5100 nM | –
COC(=O)Nc1nc2ccc(C(=O)NCCC(C)(C)C)cc2[nH]1 [2-7] | 410 nM | 43% | 420 nM | –
CCC(C)CNC(=O)c1ccc2nc(NC(=O)OC)[nH]c2c1 (stereo not drawn) [2-8] | 5000 nM | none | 4900 nM | –
CCC(CC)NC(=O)c1ccc2nc(NC(=O)OC)[nH]c2c1 [2-9] | 370 nM | 16% | 228000 nM | –
COC(=O)Nc1nc2ccc(C(=O)NCCCN(C)C)cc2[nH]1 [2-10] | 553000 nM | 5% | 447000 nM | –
COCCNC(=O)c1ccc2nc(NC(=O)OC)[nH]c2c1 [2-11] | 30500 nM | 19% | 17100 nM | –
COC(=O)Nc1nc2ccc(C(=O)Nc3ccccc3O)cc2[nH]1 [2-13] | 2800 nM | 27% | 2300 nM | –
COC(=O)Nc1nc2ccc(C(=O)Nc3cc(OC)c(OC)c(OC)c3)cc2[nH]1 [2-15] | 6100 nM | 5% | 4200 nM | –
CCCCN(C)C(=O)c1ccc2nc(NC(=O)OC)[nH]c2c1 [2-17] | 4600 nM | none | 2500 nM | –
CCCN(CCC)C(=O)c1ccc2nc(NC(=O)OC)[nH]c2c1 [2-18] | 9400 nM | 42% | 3100 nM | –
COC(=O)Nc1nc2ccc(C(=O)OCCOCCCl)cc2[nH]1 [3-2] | 82 nM | 14% | 36 nM | –
C=CCOC(=O)c1ccc2nc(NC(=O)OC)[nH]c2c1 [3-3] | 220 nM | 42% | 59 nM | –
C=CCCOC(=O)c1ccc2nc(NC(=O)OC)[nH]c2c1 [3-6] | 44 nM | 12% | 7.6 nM | # of Toxic Deaths (B16 murine melanoma [2]; 10 mg/kg/i.v): 0; Weight Change (Day 12) (B16 murine melanoma [2]; 10 mg/kg/i.v): +8.7%; T/C (%) (B16 murine melanoma [2]; 10 mg/kg/i.v): 107%; # of Survivors (B16 murine melanoma [2]; 10 mg/kg/i.v): 0; # of Toxic Deaths (B16 murine melanoma [2]; 20 mg/kg/i.v): 0; Weight Change (Day 12) (B16 murine melanoma [2]; 20 mg/kg/i.v): +6.5%; T/C (%) (B16 murine melanoma [2]; 20 mg/kg/i.v): 99%; # of Survivors (B16 murine melanoma [2]; 20 mg/kg/i.v): 0; # of Toxic Deaths (B16 murine melanoma [2]; 50 mg/kg/i.p): 0; Weight Change (Day 12) (B16 murine melanoma [2]; 50 mg/kg/i.p): +9.4%; T/C (%) (B16 murine melanoma [2]; 50 mg/kg/i.p): 119%; # of Survivors (B16 murine melanoma [2]; 50 mg/kg/i.p): 0; # of Toxic Deaths (B16 murine melanoma [2]; 100 mg/kg/i.p): 0; Weight Change (Day 12) (B16 murine melanoma [2]; 100 mg/kg/i.p): +8.9%; T/C (%) (B16 murine melanoma [2]; 100 mg/kg/i.p): 118%; # of Survivors (B16 murine melanoma [2]; 100 mg/kg/i.p): 0
COC(=O)Nc1nc2ccc(C(=O)OCc3ccccc3)cc2[nH]1 [3-7] | 85 nM | 26% | 33 nM | –
COC(=O)Nc1nc2ccc(C(=O)OCCCCl)cc2[nH]1 [3-9] | 210 nM | none | 54 nM | –
COC(=O)Nc1nc2ccc(C(=O)OCC=CCO)cc2[nH]1 [3-10] | 1000 nM | none | 600 nM | –
COC(=O)Nc1nc2ccc(C(=O)OCCCCCO)cc2[nH]1 [3-11] | 248000 nM | 50% | 107000 nM | –

Compound | IC50 (B16 murine melanoma [1]) | Tubulin Polymerization Inhibition, % Inhibition (Tubulin) | IC50 (colon tumor cells (HT29)) | other results
COC(=O)Nc1nc2ccc(C(=O)OCC(F)(F)C(F)(F)F)cc2[nH]1 [3-14] | 588000 nM | 23% | 314000 nM | –
COC(=O)Nc1nc2ccc(C(=O)OC(CF)CF)cc2[nH]1 [3-15] | 940 nM | 45% | 610 nM | –
COC(=O)Nc1nc2ccc(C(=O)OC(C)C3CC3)cc2[nH]1 (stereo not drawn) [3-16] | 62 nM | 44% | 30 nM | –
COC(=O)Nc1nc2ccc(C(=O)OCCF)cc2[nH]1 [3-17] | 970 nM | 8% | 300 nM | –
COC(=O)Nc1nc2ccc(C(=O)OC(CBr)CBr)cc2[nH]1 [3-18] | 1200 nM | none | 2100 nM | –
COC(=O)Nc1nc2ccc(C(=O)OCCC(C)CC(C)(C)C)cc2[nH]1 (stereo not drawn) [3-20] | < 1 nM | 35% | 13 nM | –
COC(=O)Nc1nc2ccc(C(=O)OCCC(C)CCC=C(C)C)cc2[nH]1 (stereo not drawn) [3-21] | 77 nM | 2% | 46 nM | –
COC(=O)Nc1nc2c(OC(=O)CC(C)CC(C)(C)C)cccc2[nH]1 (stereo not drawn) [Cpd. No. 1-1] | 20100 nM | 38% | 15800 nM | –
COC(=O)Nc1nc2c(OC(=O)c3cc(OC)c(OC)c(OC)c3)cccc2[nH]1 [Cpd. No. 1-2] | 14000 nM | 35% | 26300 nM | –
CCN(CC)CCCNC(=O)c1ccc2nc(NC(=O)OC)[nH]c2c1 [Cpd. No. 2-1] | 530000 nM | 24% | 398000 nM | –
COC(=O)Nc1nc2ccc(C(=O)NC(C)CC(C)C)cc2[nH]1 (stereo not drawn) [Cpd. No. 2-6] | 840 nM | 12% | 500 nM | –
COC(=O)Nc1nc2ccc(C(=O)NNc3ccccc3)cc2[nH]1 [Cpd. No. 2-12] | 271000 nM | 50% | 25400 nM | –
COC(=O)Nc1nc2ccc(C(=O)NCCN(C)C)cc2[nH]1 [Cpd. No. 2-14] | 403000 nM | none | 158000 nM | –
COC(=O)Nc1nc2ccc(C(=O)N(C)C3CCCCC3)cc2[nH]1 [Cpd. No. 2-16] | 320 nM | 39% | 230 nM | –
CCOCCOCCOC(=O)c1ccc2nc(NC(=O)OC)[nH]c2c1 [Cpd. No. 3-4] | 84 nM | 12% | 27 nM | –
COC(=O)Nc1nc2ccc(C(=O)OCCOCCO)cc2[nH]1 [Cpd. No. 3-5] | 2600 nM | 10% | – | –
COC(=O)Nc1nc2ccc(C(=O)OCCN(C)C)cc2[nH]1 [Cpd. No. 3-8] | 70400 nM | none | 48600 nM | –
COC(=O)Nc1nc2ccc(C(=O)OC(CCl)CCl)cc2[nH]1 [Cpd. No. 3-12] | 990 nM | 11% | 2100 nM | –
COC(=O)Nc1nc2ccc(OC(=O)c3cc(OC)c(OC)c(OC)c3)cc2[nH]1 [Cpd. No. 4-1] | 250 nM | 2% | 170 nM | –
COC(=O)Nc1nc2ccc(NC(=O)CC(C)CC(C)(C)C)cc2[nH]1 (stereo not drawn) [Cpd. No. 5-1] | 6600 nM | none | 7000 nM | –
